According to US5026711A, “4-amino quinolines and naphthyridines and their use as medicines” (priority 1988, dated 1991):
Read-outs that look alike come from different tables or passages of the source.

What was measured:
[1] = tested on: receptors of the peripheral type; experiment: in vivo inhibition of [3H] PK11195 binding to peripheral type receptors in organs of the mouse
Experimental: The assays were carried out in the mouse by using the binder [^3 H]
The products to be tested are administered orally in suspension in an aqueous solution of carboxymethylcellulose (1% wt/v) to groups of 4 mice 35 mn before the intravenous injection of [^3 H] […] 5 mn after the injection the animals are sacrificed by decapitation and the different organs are removed and ground in 10 ml Tris-HCl buffer (50 mM; pH=7.4) to give homogenates.
The control groups only received the carboxymethylcellulose solution and the injection of [^3 H]
A determination was made for each organ by means of scintigraphy of:
1--the amount of radioactive binder present in an organ by measuring the radioactivity of an aliquot of the homogenate.
2--the amount of radioactive binder bound to the membrane tissues of an organ by measuring the radioactivity bound on a fiber glass filter after filtration of another aliquot of the homogenate.
3--the amount of radioactive binder bound non-specifically to the membrane tissues by incubating a control homogenate with an excess of RO5-4864, a known binder, followed by binding of the membranes to a filter and measurement of the radioactivity remaining on the membranes.
The inhibition of specific binding, recorded as SB, is equal to the difference between the radioactivity measurements 2 and 3 divided by measurement 1.
The percentages of inhibition of the binding in different organs determined for compounds of the invention and the reference substances are shown in table VI; they are given by the formula: [formula]

[2] = molecular target: T1, benzodiazepine receptors of the peripheral type (Felis catus, UniProt A0ABI7ZQW3); experiment: inhibition of specific binding of [3H] PK11195 to peripheral type benzodiazepine receptors, membrane proteins of cat brain
T1 sequence (A0ABI7ZQW3 15-183): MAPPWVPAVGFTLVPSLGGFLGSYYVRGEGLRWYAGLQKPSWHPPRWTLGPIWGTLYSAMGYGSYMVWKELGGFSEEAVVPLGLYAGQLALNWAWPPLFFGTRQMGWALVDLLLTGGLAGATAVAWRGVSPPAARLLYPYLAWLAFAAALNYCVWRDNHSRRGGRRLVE
Experimental: The method is similar to that described by J. Benavides et al. in Brain Res. Bull. 13 p. 69-77 (1984) and references cited therein.
Suspensions of membrane proteins of cat brain were prepared as described by J. Benavides.
The assays of inhibition of the binding of [^3 H]
Non specific binding was defined as the amount of [^3 H]

[3] = tested on: central benzodiazepine receptors; experiment: inhibition of specific binding of [3H] flunitrazepam to central benzodiazepine receptors, rat brain; settings: 4° C., pH 7.4
Experimental: (b) determination of the concentration of the product under study inhibiting 50% of the specific binding of flunitrazepam to the central receptors.
The brains of rats were removed after decapitation and ground, then placed in suspension in an aqueous solution of sucrose (0.32M). The mixture is centrifuged and the pellet is resuspended to give a homogenous suspension in a TRIS-HCl buffered solution (50 mM; pH=7.4). Aliquots of this suspension are incubated at 4° C. after addition of [^3 H] flunitrazepam, alone or with increasing amounts of the compound to be tested.

[4] = oral acute toxicity in the mouse (LD50); type: in vivo; settings: for LD50: in vivo, oral route
Experimental: The compounds of Examples 3, 67, 90, 107 and 114 are atoxic at the dose of 500 mg/kg in the mouse.

[5] = [3H] PK11195 0.5 nM, cat brain membranes, 4° C., 2h30; read-out: IC50 (peripheral)

| Structure (SMILES) | IC50 [2, 5] | IC50 [3] | % Inhibition, brain ([1]; 25 mg/kg oral) | % Inhibition, spleen ([1]; 25 mg/kg oral) | further results |
| --- | --- | --- | --- | --- | --- |
| CCC(C)N(C)C(=O)c1cc2ccccc2c(-c2ccccc2Cl)n1 (centres unmarked) [PK11195, 1-(2-chlorophenyl) 3-(N-methyl N-methylpropyl) carbamoyl isoquinoline, reference compound] | 1.3 nM | – | – | – | % Inhibition, brain ([1]; 15 mg/kg oral): 71%; % Inhibition, heart ([1]; 15 mg/kg oral): 27%; % Inhibition, kidney ([1]; 15 mg/kg oral): 54%; % Inhibition, spleen ([1]; 15 mg/kg oral): 29%; % Inhibition, thymus ([1]; 15 mg/kg oral): 30% |
| CN1C(=O)CN=C(c2ccc(Cl)cc2)c2cc(Cl)ccc21 [R05-4864, 7-chloro 1,3-dihydro 1-methyl 5-(4-chlorophenyl) 1,4-2H-benzodiazepine 2-one, reference compound] | – | – | – | – | IC50 (central) [3]: inactive; % Inhibition, brain ([1]; 15 mg/kg oral): 74%; % Inhibition, heart ([1]; 15 mg/kg oral): 27%; % Inhibition, kidney ([1]; 15 mg/kg oral): 73%; % Inhibition, spleen ([1]; 15 mg/kg oral): 11%; % Inhibition, thymus ([1]; 15 mg/kg oral): 28%; IC50 ([2]; read-out: IC50 (peripheral); [3H] PK11195 0.5 nM, cat brain membranes, 4° C., 2h30): 44 nM |
| CCCN(CCC)C(=O)C(C)Nc1c(C(=O)OCC)cnc2ccc(Cl)cc12 (centres unmarked) [SR 26058] | – | – | – | – | atoxic at the dose of 500 mg/kg [4]: atoxic |
| CCCN(CCC)C(=O)C(C)Nc1c(C(=O)OCC)cnc2cc(C(F)(F)F)ccc12 (centres unmarked) [SR 26241, ethyl 4-[1-(N,N-dipropylcarbamoyl)ethylamino] 7-trifluoromethyl quinoline 3-carboxylate] | – | – | – | – | LD50 [4]: 1100 mg/kg |
| CN(C(=O)CNc1c(C(=O)c2ccccc2)cnc2cccnc12)c1ccc(Cl)cc1 [SR 26276] | – | – | – | – | LD50 [4]: > 1800 mg/kg |
| CC(Nc1c(C(=O)c2ccccc2)cnc2cccnc12)C(=O)N(C)c1ccc(Cl)cc1 (centres unmarked) [SR 26455] | – | – | – | – | atoxic at the dose of 500 mg/kg [4]: atoxic |
| CN(C(=O)CCNc1c(C(=O)c2ccccc2)cnc2cccnc12)c1ccc(Cl)cc1 [SR 26731] | – | – | – | – | atoxic at the dose of 500 mg/kg [4]: atoxic |
| CN(C(=O)CNc1c(C(=O)c2ccccc2)cnc2cccnc12)c1ccc(Cl)cc1Cl [SR 26972] | – | – | – | – | atoxic at the dose of 500 mg/kg [4]: atoxic |
| COc1ccc(N(C)C(=O)CNc2c(C(=O)c3ccccc3)cnc3cc(Br)ccc23)cc1 [SR 27195] | – | – | – | – | atoxic at the dose of 500 mg/kg [4]: atoxic |
| CN(C(=O)CNc1c(C(=O)c2ccccc2)cnc2cccnc12)c1ccc(Cl)cc1 [compound 26276] | 0.3 nM | 13400 nM | – | – | % Inhibition, brain ([1]; 8 mg/kg oral): 78%; % Inhibition, heart ([1]; 8 mg/kg oral): 30%; % Inhibition, kidney ([1]; 8 mg/kg oral): 69%; % Inhibition, spleen ([1]; 8 mg/kg oral): 37%; % Inhibition, thymus ([1]; 8 mg/kg oral): 34% |
| CCCN(CCC)C(=O)C(C)Nc1c(C(=O)OCC)cnc2cc(Cl)ccc12 (centres unmarked) [compound 26310] | 1 nM | > 20000 nM | 76% | 52% | % Inhibition, heart ([1]; 25 mg/kg oral): 39%; % Inhibition, kidney ([1]; 25 mg/kg oral): 32%; % Inhibition, thymus ([1]; 25 mg/kg oral): 31% |
| CN(C(=O)CNc1c(C(=O)c2ccccc2)cnc2cc(Cl)ccc12)c1ccc(Cl)cc1 [compound 26412] | 0.4 nM | > 10000 nM | 79% | 62% | – |
| CN(C(=O)CNc1c(C(=O)c2ccccc2)cnc2cc(Cl)cnc12)c1ccc(Cl)cc1 [compound 26830] | 0.13 nM | > 10000 nM | 64% | 26% | – |
| COc1ccc(N(C)C(=O)CNc2c(C(=O)c3ccccc3)cnc3cc(Cl)ccc23)cc1 [compound 26846] | 2.9 nM | > 10000 nM | 91% | 80% | – |
| CCN(C(=O)CNc1c(C(=O)c2ccccc2)cnc2cccnc12)c1ccc(Cl)cc1 [compound 26858] | 0.77 nM | > 10000 nM | 95% | 84% | – |
| CN(C(=O)CNc1c(C(=O)c2ccccc2)cnc2cc(Br)ccc12)c1ccc(Cl)cc1 [compound 26876] | 0.5 nM | > 10000 nM | 84% | 64% | – |
| COc1ccc(C(=O)c2cnc3cccnc3c2NCC(=O)N(C)c2ccc(Cl)cc2)cc1 [compound 27153] | 1.62 nM | 47900 nM | 87% | 52% | – |
| COc1ccc(N(C)C(=O)CNc2c(C(=O)c3ccccc3)cnc3cccnc23)cc1 [compound 27161] | 2.3 nM | > 10000 nM | 92% | 78% | – |
